Experimental findings from patent US20250051862A1, “METHODS AND COMPOSITIONS RELATED TO ENGINEERED BIOSENSORS” (priority 2021, published 2025) are described below.

Values after ≈ are worked out from the molar mass of the structure shown.

Data set [1] in a line: Solubility limit of BIAs in 1% DMSO. Format: physicochemical. As to conditions: used as maximum ligand concentration. As to the method:
(a) Transfer functions for all four generations of RamR variants with five different BIAs. The maximum ligand concentration was chosen based on the compound's solubility limit in 1% DMSO, 100 μM for Noscapine and 250 μM for all other BIAs. Fluorescent measurements for each condition were an average of three biological replicates. (b) Background fluorescence measurements for all RamR generations. The same promoter was used to express variants from each evolutionary trajectory (see methods) (c) Orthogonality matrix of all evolved sensors. Fold-response is shown for all BIAs for the native RamR protein, the first, second, third, and fourth generations from top to bottom, respectively. 100 μM of the indicated BIA was applied in all conditions. Measurements for each condition were an average of three biological replicates.

Data set [2] has as its target T1, RamR (Salmonella typhimurium, UniProt Q8ZR43).
T1 construct: expressed in transfected cells; host or cells: E. coli DH10B co-transformed with pReg (regulator) and pGFP (reporter)
T1 sequence (Q8ZR43 whole entry, looked up): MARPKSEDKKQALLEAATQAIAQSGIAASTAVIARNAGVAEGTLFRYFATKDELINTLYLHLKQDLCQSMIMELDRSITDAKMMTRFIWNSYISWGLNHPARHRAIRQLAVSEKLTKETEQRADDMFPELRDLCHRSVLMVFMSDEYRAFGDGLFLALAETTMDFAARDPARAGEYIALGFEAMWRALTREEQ
Nature of the data set: Biosensor response assay: fluorescence response of multidrug resistance regulators to target BIAs. In kind it is cell-based, Escherichia coli. As to conditions: E. coli DH10B, pReg + pGFP (sfGFP); glaucine 1 mM, noscapine 100 uM, papaverine 500 uM, rotundine 250 uM, tetrahydropapaverine 1 mM. Here is the method: To identify a biosensor with some degree of BIA affinity to serve as a suitable scaffold for evolution, the responsiveness of six well characterized multidrug resistance regulators, QacR, TtgR, RamR, SmeT, NalD, and Bm3R1 to the target BIAs were assayed. Regulators were constitutively expressed on one plasmid (pReg) that was co-transformed with another plasmid bearing the regulator's cognate promoter expressing sfGFP (pGFP). Promoters for QacR and TtgR were obtained from the literature while promoters for the remainder were designed by either placing the sensor's operator downstream a medium strength promoter (Bm3R1) or by modifying the −35 or −10 regions of the sensor's native promoter towards the E. coli consensus (NalD, SmeT, RamR) [18*, 18**] if necessary to produce sufficient transcription (FIG. 7a). The ability of each regulator to repress transcription was confirmed by measuring the promoter activity with and without the expression of the cognate sensor via fluorescence (FIG. 7b). […]
Promoters for TtgR and QacR were derived from the literature. […] 100 μL of the cell resuspension for each condition was transferred to a 96 well microtiter plate (Corning, Product #: 3904), from which the fluorescence (Ex: 485 nm, Em: 509 nm) and absorbance ([…]) was measured using the Tecan Infinite M1000 plate reader.

`COc1ccc2c(c1OC)C(=O)O[C@@H]2[C@H]1c2c(cc3c(c2OC)OCO3)CCN1C` [Noscapine, noscapine]: in data set [1], the “solubility limit in 1% DMSO” value came out at 100 µM (≈ 41.3 µg/mL).

B1: RamR: multidrug resistance regulator from Salmonella typhimurium, template for sensor evolution (protein)
chain: MVARPKSEDKKQALLEAATQAIAQSGIAASTAVIARNAGVAEGTLFRYFATKDELINTLYLHLRQDLCQSLIMELDRSITDAKMMMRFIWNSGISWGLNHPARHRAIRQLAVSEKLTKETHQRDLDMFPELRDILHRRVLMVFMSDEYRAFGDGLFLALAETTMDFAARDPARAGEYIALGFEAMWRALTREEQ
modifications: Description of sequence peptide sensor; Name PAP4; This sensor binds to papaverine
notes: multidrug resistance regulator from Salmonella typhimurium, template for sensor evolution
Regarding B1, the “Fluorescence response to target BIAs” value in data set [2] is given as “moderately responsive”.
